According to PubChem BioAssay (NCI):
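Growth conditions: 96-well plates. Treatment: test compound, 48 hours, 5 concentrations. Analysis: linear interpolation between bracketing concentrations; unreached endpoints set to highest concentration. Abbreviation: GI50, concentration required for 50% inhibition of growth. TGI denotes the concentration required for complete inhibition of growth.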

How the values were obtained:
Experiment in all cases: NCI-60 cell line screen, 48 h
SK-MEL-5 melanoma = test system: SK-MEL-5 melanoma
M14 melanoma = test system: M14 melanoma
SK-MEL-2 melanoma = test system: SK-MEL-2 melanoma
U251 CNS = test system: U251 CNS
SF-268 CNS = test system: SF-268 CNS
RXF 393 renal = test system: RXF 393 renal
MOLT-4 leukemia = test system: MOLT-4 leukemia
NCI-H226 lung = test system: NCI-H226 lung
HCT-15 colon = test system: HCT-15 colon
CAKI-1 renal = test system: CAKI-1 renal
A498 renal = test system: A498 renal

| SMILES | TGI (SK-MEL-5 melanoma) [µM] | TGI (M14 melanoma) [µM] | TGI (SK-MEL-2 melanoma) [µM] | TGI (U251 CNS) [µM] | TGI (SF-268 CNS) [µM] | TGI (RXF 393 renal) [µM] | TGI (MOLT-4 leukemia) [µM] | TGI (NCI-H226 lung) [µM] | TGI (HCT-15 colon) [µM] | TGI (CAKI-1 renal) [µM] | TGI (A498 renal) [µM] | GI50 (SF-268 CNS) [µM] |
| --- | --- | --- | --- | --- | --- | --- | --- | --- | --- | --- | --- | --- |
| Cc1cc(=O)oc2c(CNC(Cc3ccccc3)C(=O)O)c(O)ccc12 (centres undefined) | > 100 | > 100 | > 100 | > 100 | > 100 | > 100 | > 100 | > 100 | > 100 | > 100 |  |  |
| CCC(C#N)NCc1cccc(CNC(C#N)CC)c1 (centres undefined) | > 100 | 31.4 | > 100 | > 100 | > 100 |  | > 100 | > 100 | > 100 | > 100 | > 100 |  |
| O=C(Nc1nc(C23CC4CC(CC(C4)C2)C3)cs1)c1cc2ccccc2oc1=O | > 100 |  |  | > 100 | > 100 | > 100 | > 100 | > 100 | > 100 | > 100 | > 100 |  |
| CC(=O)O[C@H]1C(=O)[C@@]2(C)C(C(OC(=O)c3ccccc3)C3[C@@H](O)C(OC(=O)[C@@H](O)[C@H](NC(=O)c4ccccc4)c4ccc(C(F)(F)F)cc4)C(C)=C1C3(C)C)[C@]1(OC(C)=O)CO[C@@H]1C[C@@H]2O (some centres undefined) | > 25 | > 25 | > 25 | > 25 | > 25 | > 25 | > 25 | > 25 | > 25 | > 25 |  |  |
| Cc1ccnc(NC(NC(=O)c2ccccc2)(C(F)(F)F)C(F)(F)F)c1 | > 100 | > 100 | > 100 | > 100 | > 100 | > 100 | > 100 | > 100 | > 100 | > 100 |  |  |
| Cc1cc(S(=O)(=O)Nc2nc3ccccc3c(=O)n2N)c(S)cc1Cl | > 100 | > 100 | > 100 | > 100 | 40.1 |  | > 100 | 67.1 | > 100 | > 100 |  | 7.23 |
| CN(C)c1nc(Cl)c2c(-c3ccccc3)c(-c3ccccc3)oc2n1 | > 100 | > 100 |  | > 100 | > 100 | 45.2 | 96.2 | > 100 | > 100 | > 100 | > 100 |  |
| CCN(CC)C(=O)C(C)n1cc(C)c(=O)[nH]c1=O (centres undefined) | > 100 | > 100 | > 100 | > 100 | > 100 | > 100 | > 100 |  | > 100 |  |  |  |
| COI1NC(=O)c2ccccc21 | > 100 | > 100 | > 100 | > 100 | > 100 |  | > 100 | > 100 | > 100 |  | > 100 |  |
| O=C(O)CN1C(=O)C(Cc2ccc(O)cc2)N=C(c2cccc(O)c2)c2ccccc21 (centres undefined) |  | > 100 | > 100 | > 100 | > 100 |  | > 100 | > 100 | > 100 |  | 25.3 |  |
| O=C(NNC(=S)NC1CCCCC1)c1csc(NC(=S)NC2CCCCC2)n1 | 8.79 | 16.1 | 33.7 | 20.2 | 26.3 |  | 25.5 | > 100 | 14.5 | 24.2 | 36.3 |  |
| O=C1CSC(c2cccc([N+](=O)[O-])c2)N1c1ccc(-n2c(-c3ccccc3)nc3ccccc3c2=O)cc1 (centres undefined) | > 100 | > 100 | > 100 | > 100 | > 100 |  | > 100 | > 100 | > 100 | > 100 | > 100 |  |
| O=C1Oc2cc(O)cc(/C=C/c3ccc(O)cc3)c2[C@@]12c1c(O)cc(O)cc1OC2c1cccc(O)c1 (some centres undefined) | 43.3 | > 100 | 54.8 | > 100 | > 100 | 94.3 | > 100 | 93.2 | > 100 | > 100 |  |  |
| CC(=O)Nc1c(C)cc2c(nc3n2CCC3O)c1[N+](=O)[O-] (centres undefined) | > 100 | > 100 | > 100 | > 100 | > 100 |  | > 100 | > 100 | > 100 | > 100 | > 100 |  |
